Converted amounts (≈) assume the structure as drawn. Like-named read-outs stand apart in the source and are kept apart here.
Assays:
[1] = tested on: Candida albicans; conditions: 2869 isolates; cited from earlier work
[2] = Toxicology observations in the rat pharmacokinetic study; type: in vivo; conditions: male rats, nose-only inhalation or intravenous injection
Experimental: A detailed, hand-held physical examination was conducted on all animals once during the quarantine period (prior to randomization). During the treatment period, the animals were observed daily for mortality or evidence of moribundity; these checks were separated by a minimum of four hours. Daily cage-side clinical observations were conducted during exposure, and daily hand-held clinical observations were conducted before and after exposure. Observations included, but were not limited to the following: changes in the skin and fur, eyes, and mucous membranes; effects on the respiratory, circulatory, autonomic and central nervous systems; and effects on somatomotor activity and behavior pattern.
Body Weights and Body Weight Changes: Body weights were determined one day after animal receipt; at randomization; and prior to exposure on Study Day 1, 2, 3 and 7 (as applicable based on scheduled euthanization).
Plasma and Tissue Samples/Necropsy: Whole blood samples were collected from three animals per time-point at approximately 0.5, 1, 2, 4, 8, 12, 24 and 48 hours and 7 days after dose administration for plasma drug level determination. Rats were anesthetized with 70% CO2/30% air and blood was collected from the retro-orbital plexus and placed into tubes containing anticoagulant (EDTA). Blood samples were placed on ice immediately following collection and processed (i.e., centrifuged) to plasma. The samples were then stored frozen (at approximately −70° C.) until analyzed. All study animals surviving to scheduled necropsy were euthanized by an overdose of an intraperitoneal injection of sodium pentobarbital at […]. Tissue specimens (lung, liver and kidney) were collected from three animals per time point at 0.5, 2, 24 and 48 hours and 7 days after dose administration. All tissue specimens were stored frozen at approximately −70° C. until analyzed.

[3] = tested on: Candida guilliermondii; conditions: 61 isolates; cited from earlier work
[4] = tested on: Candida parapsilosis; conditions: 759 isolates; cited from earlier work
[5] = tested on: Candida krusei; conditions: 136 isolates; cited from earlier work
[6] = tested on: All Candida spp.; conditions: All Candida spp., 5,346 isolates; cited from earlier work
[7] = tested on: Candida glabrata; conditions: 747 isolates; cited from earlier work
[8] = tested on: Aspergillus versicolor; conditions: 75 isolates; cited from earlier work
[9] = tested on: Aspergillus flavus; conditions: cited from earlier work
[10] = tested on: Aspergillus niger; conditions: cited from earlier work
[11] = tested on: Candida tropicalis; conditions: 625 isolates; cited from earlier work
[12] = tested on: Aspergillus fumigatus; conditions: cited from earlier work
[13] = tested on: Aspergillus nidulans; conditions: cited from earlier work
[14] = 2 mg/kg, cited from earlier work
[15] = tested on: Aspergillus terrus; conditions: cited from earlier work

## CC[C@H](C)C[C@H](C)CCCCCCCCC(=O)N[C@H]1C[C@@H](O)[C@@H](NCCN)NC(=O)[C@@H]2[C@@H](O)CCN2C(=O)[C@H]([C@H](O)CCN)NC(=O)[C@H]([C@H](O)[C@@H](O)c2ccc(O)cc2)NC(=O)[C@@H]2C[C@@H](O)CN2C(=O)[C@H]([C@@H](C)O)NC1=O [caspofungin]
[1]
  MIC90: 0.06 µg/mL (≈ 0.0549 µM)
[2]
  Clinical signs of toxicity: no clinical signs of toxicity
  Effects on body weight: no effects on body weight
  Gross necropsy findings: no gross necropsy findings
  Mortality: no test-article related mortality
[3]
  MIC90: 1 µg/mL (≈ 0.915 µM)
[4]
  MIC90: 1 µg/mL (≈ 0.915 µM)
[5]
  MIC90: 0.25 µg/mL (≈ 0.229 µM)
[6]
  MIC90: 0.25 µg/mL (≈ 0.229 µM)
[7]
  MIC90: 0.06 µg/mL (≈ 0.0549 µM)
[8]
  MEC Average (Mode): 0.12 µg/mL
  MEC Range: 0.032 to 2 µg/mL
[9]; 13 isolates
  MIC90 Average (Geometric Mean MIC): 0.2 µg/mL (≈ 0.183 µM)
  MIC90 Range: 0.06 to 2 µg/mL
[9]; 432 isolates
  MEC Average (Mode): 0.06 µg/mL
  MEC Range: 0.016 to 32 µg/mL
[10]; 10 isolates
  MIC90 Average (Geometric Mean MIC): 0.14 µg/mL (≈ 0.128 µM)
  MIC90 Range: 0.06 to 0.5 µg/mL
[10]; 440 isolates
  MEC Average (Mode): 0.06 µg/mL
  MEC Range: 0.016 to 2 µg/mL
[11]
  MIC90: 0.06 µg/mL (≈ 0.0549 µM)
[12]; 56 isolates
  MIC90 Average (Geometric Mean MIC): 0.25 µg/mL (≈ 0.229 µM)
  MIC90 Range: 0.12 to 4 µg/mL
[12]; 1691 isolates
  MEC Average (Mode): 0.25 µg/mL
  MEC Range: 0.016 to 32 µg/mL
[13]; 13 isolates
  MIC90 Average (Geometric Mean MIC): 0.44 µg/mL (≈ 0.402 µM)
  MIC90 Range: 0.2 to 4 µg/mL
[13]; 192 isolates
  MEC Average (Mode): 0.12 µg/mL
  MEC Range: 0.032 to 16 µg/mL
[14]; 0.5 h
  Kidney concentration, radiolabeled compound (Stone 2004): 9.15 µg/g
[14]; 2 h
  Kidney concentration, radiolabeled compound (Stone 2004): 10.60 µg/g
[14]; 24 h
  Kidney concentration, radiolabeled compound (Stone 2004): 11.40 µg/g
[15]; 11 isolates
  MIC90 Average (Geometric Mean MIC): 0.12 µg/mL (≈ 0.11 µM)
  MIC90 Range: 0.06 to .2 µg/mL
[15]; 385 isolates
  MEC Average (Mode): 0.06 µg/mL
  MEC Range: 0.016 to 2 µg/mL

— US11071768B2, “Caspofungin compositions for inhalation” (TRILOGY THERAPEUTICS, INC., priority 2018, dated 2021)
